This passage reports EC50 and IC50 results from US10023562B2, “Heteroaryl substituted pyridyl compounds useful as kinase modulators” (BRISTOL-MYERS SQUIBB COMPANY, priority 2012, dated 2018).

The first experiment deals with TLR2 induced IL-6 in peripheral blood mononuclear cells (PBMCs). Description: PBMC TLR2 Induced IL-6 Assay. The experiment is classed as cell-based. The conditions noted are these: Homo sapiens, PBMC, 5 h, 10 μg/ml lipoteichoic acid for 5 hours, IL-6 by ELISA, values marked * are EC50, read-out: Cell EC50 (values marked *). As for the experimental part: PBMC TLR2 Induced IL-6 Assay Peripheral blood mononuclear cells (PBMCs) were isolated from human blood containing the anti-coagulant EDTA (2.5 mM) by centrifugation over a FICOLL® gradient. […] At the end of the culture, plates were centrifuged at 1800 rpm for 10 minutes to pellet the cells. Supernatants were harvested and analyzed for IL-6 levels by ELISA (BD Biosciences, San Jose, Calif.).
The EC50 is the midpoint of the concentration-response curve. With `CC(C)Nc1cc(Nc2ncncc2N)ncc1C(=O)NC[C@@H](F)C(C)(C)O` [Example 132], the EC50 is 862 nM.

Take `CC(C)(O)[C@H](F)CNC(=O)c1cnc(Nc2ncc(C#N)cc2Cl)cc1Nc1ccc2ncsc2c1` [Example 153]: the EC50 was 439 nM.

As to `CC(C)(O)[C@H](F)CNC(=O)c1cnc(Nc2ncc(C#N)cn2)cc1NC1CCC(F)C1` (stereo partly shown) [Example 86], the EC50 is 349 nM. Consider `CCNc1cc(Nc2ncc(C#N)cc2F)ncc1C(=O)NC[C@@H](F)C(C)(C)O` [Example 66], for which the EC50 turned out to be 63 nM. As for `CC(C)(O)[C@H](F)CNC(=O)c1cnc(Nc2ncc(F)cc2F)cc1NC1CC1` [Example 89], the EC50 was 491 nM.

Regarding `CC(C)(O)[C@H](F)CNC(=O)c1cnc(Nc2ncc(C#N)cn2)cc1N[C@H]1CCC[C@H]1F` [Example 107], the EC50 was 757 nM. On the same count and under the same terms, the value for `Cn1nnnc1-c1cccc(Nc2cc(Nc3ncc(C#N)cc3Cl)ncc2C(=O)NC[C@@H](F)C(C)(C)O)c1` [Example 146] was 509 nM; that for `CC(C)(O)[C@H](F)CNC(=O)c1cnc(Nc2ncc(C#N)cc2Cl)cc1NC1CCCC1O` (stereo partly shown) [Example 76] was 107 nM; that for `CC(C)(O)[C@H](F)CNC(=O)c1cnc(Nc2ncc(C#N)cc2F)cc1Nc1cccc(CO)c1` [Example 122] was 56 nM. Still for that read-out and setting: the figure for `CC(C)(O)[C@H](F)CNC(=O)c1cnc(Nc2ncc(C#N)cc2F)cc1NC12CC3CC(CC(C3)C1)C2` [Example 119] is 736 nM. As for `CC(C)(O)[C@H](F)CNC(=O)c1cnc(Nc2ncc(C#N)cc2Cl)cc1Nc1cccc(C#N)c1` [Example 162], the EC50 was found to be 330 nM. As to `CC(C)(O)[C@H](F)CNC(=O)c1cnc(Nc2nc(OC3CCNCC3)ncc2Cl)cc1NC1CC1` [Example 42], the EC50 stood at 329 nM.

Take `CC(C)(O)[C@H](F)CNC(=O)c1cnc(Nc2ncc(C#N)cc2F)cc1NC1CCC(F)C1` (stereo partly shown) [Example 114]: the EC50 was 56 nM. The same measure, in the same setting: the value for `CC(C)CCNc1cc(Nc2ncc(C#N)cc2Cl)ncc1C(=O)NC[C@@H](F)C(C)(C)O` [Example 140] was 241 nM; that for `Cn1nnnc1-c1ccc(Nc2cc(Nc3ncc(C#N)cc3Cl)ncc2C(=O)NC[C@@H](F)C(C)(C)O)cc1` [Example 148] was 111 nM.

As to `CC(C)(O)[C@H](F)CNC(=O)c1cnc(Nc2ncc(Cl)cc2F)cc1NC1CC1` [Example 124], the EC50 stood at 98 nM. As for `CC(C)(O)[C@H](F)CNC(=O)c1cnc(Nc2ncc(C#N)cc2F)cc1NCC(F)(F)C(C)(C)O` [Example 126], the EC50 is 83 nM. In the case of `CC(C)CNc1cc(Nc2ncc(C#N)cc2Cl)ncc1C(=O)NC[C@@H](F)C(C)(C)O` [Example 155], the 50% effective concentration (EC50) was determined as 309 nM. Still for that read-out and setting: the value for `C[C@@H](CF)Nc1cc(Nc2ncc(C#N)cc2Cl)ncc1C(=O)NC[C@@H](F)C(C)(C)O` [Example 39, 6-((3-chloro-5-cyanopyridin-2-yl)amino)-N—((R)-2-fluoro-3-hydroxy-3-methylbutyl)-4-(((S)-1-fluoropropan-2-yl)amino)nicotinamide] was 100 nM; that for `CC(C)(O)[C@H](F)CNC(=O)c1cnc(Nc2ncc(C#N)cc2Cl)cc1NCC(F)(F)F` [Example 65] was 156 nM. Take `CS(=O)(=O)[C@H]1CC[C@H](NC(=O)c2cnc(Nc3ncc(C#N)cc3Cl)cc2NC2CC2)CC1` [Example 151]: the EC50 came to 187 nM.

As for `CC(C)(O)[C@H](F)CNC(=O)c1cnc(Nc2ccc(Cl)cn2)cc1NC1CC1` [Example 81], the EC50 was determined as 96 nM.

With `CCn1ncc(Nc2cc(NC(C)C)c(C(=O)NC[C@@H](F)C(C)(C)O)cn2)n1` [Example 72], the EC50 was determined as 246 nM.

As to `C[C@@H](CO)Nc1cc(Nc2ncc(C#N)cc2F)ncc1C(=O)NC[C@@H](F)C(C)(C)O` [Example 91], the EC50 was 178 nM.

`CC(C)Nc1cc(Nc2ccc(C#N)cn2)ncc1C(=O)NC1CCC(O)(c2ccnn2C)CC1` (stereo not shown) [Example 31, 6-((5-cyanopyridin-2-yl)amino)-N-((1s,4s)-4-hydroxy-4-(1-methyl-1H-pyrazol-5-yl)cyclohexyl)-4-(isopropylamino)nicotinamide]: the EC50 amounted to 170 nM.

For the molecule `CC(C)(O)[C@H](F)CNC(=O)c1cnc(Nc2ncc(C#N)cc2Cl)cc1Nc1ccc(-n2cccn2)cc1` [Example 168], the EC50 amounted to 122 nM. For `CCCNc1cc(Nc2ncc(C#N)cc2F)ncc1C(=O)NC[C@@H](F)C(C)(C)O` [Example 139], the EC50 worked out at 114 nM. Still for that read-out and setting: the value for `CC(C)(O)[C@H](F)CNC(=O)c1cnc(Nc2ncc(C#N)cc2Cl)cc1Nc1cccc(C(N)=O)c1` [Example 143] was 126 nM; that for `CC(C)Nc1cc(Nc2ccnc(N)n2)ncc1C(=O)NC[C@@H](F)C(C)(C)O` [Example 131] was 137 nM; that for `CC(C)Nc1cc(Nc2ncc(C#N)cc2F)ncc1C(=O)NCCCOC(C)(C)C` [Example 127] was 254 nM. For `CC(C)(O)C(F)(F)CNC(=O)c1cnc(Nc2ncc(C#N)cc2Cl)cc1NC1CC1` [Example 43, 6-((3-chloro-5-cyanopyridin-2-yl)amino)-4-(cyclopropylamino)-N-(2,2-difluoro-3-hydroxy-3-methylbutyl)nicotinamide], the EC50 is 169 nM. `CC(C)(O)[C@H](F)CNC(=O)c1cnc(Nc2ncc(C#N)cc2Cl)cc1NC1CCOCC1F` (stereo partly shown) [Example 79]: the EC50 is 494 nM.

On to `CC(C)(O)[C@H](F)CNC(=O)c1cnc(Nc2ncncc2Cl)cc1NC1CCOCC1` [Example 95], for which the EC50 was 501 nM.

As for `CC(C)(F)CNc1cc(Nc2ncc(C#N)cc2Cl)ncc1C(=O)NC1CCC(C(C)(C)O)CC1` (stereo not shown) [Example 103], the EC50 was 195 nM. As for `COC(=O)N[C@H]1CC[C@H](NC(=O)c2cnc(Nc3ncc(C#N)cc3F)cc2NC(C)C)CC1` [Example 165], the EC50 was 279 nM.

With `CC(C)Nc1cc(Nc2ncc(C#N)cc2F)ncc1C(=O)N[C@H]1CC[C@H](C(=O)NC(C)C)CC1` [Example 116], the EC50 was determined as 130 nM.

As for `CCCNc1cc(Nc2ncc(C#N)cc2Cl)ncc1C(=O)NC[C@@H](F)C(C)(C)O` [Example 138], the EC50 came to 108 nM.

Still in this experiment, the particulars now being: Homo sapiens, PBMC, 5 h, 10 μg/ml lipoteichoic acid for 5 hours, IL-6 by ELISA, values without asterisk, read-out: Cell IC50.
The IC50 is the concentration needed to halve the response being measured. As to `CC(C)(O)[C@H](F)CNC(=O)c1cnc(Nc2ncc(C#N)cc2Cl)cc1NC1CC1` [Example 14, 6-((3-chloro-5-cyano-2-pyridinyl)amino)-4-(cyclopropylamino)-N-((2R)-2-fluoro-3-hydroxy-3-methylbutyl)nicotinamide], the IC50 turned out to be 43 nM. Still for that read-out and setting: the value for `CC(C)(O)[C@H](F)CNC(=O)c1cnc(Nc2ncc(C#N)cc2F)cc1NC1CCCOC1` (stereo partly shown) [Example 97] was 418 nM; that for `CC(C)(O)[C@H](F)CNC(=O)c1cnc(Nc2ncc(C#N)cc2Cl)cc1NC1CCOCC1` [Example 13, 6-((3-chloro-5-cyano-2-pyridinyl)amino)-N-((2R)-2-fluoro-3-hydroxy-3-methylbutyl)-4-(tetrahydro-2H-pyran-4-ylamino)nicotinamide] was 420 nM.

On to `CNC(=O)[C@H]1CC[C@H](NC(=O)c2cnc(Nc3ncc(C#N)cc3F)cc2NC(C)C)CC1` [Example 18, 6-((5-cyano-3-fluoropyridin-2-yl)amino)-4-(isopropylamino)-N-((1r,4r)-4-(methylcarbamoyl)cyclohexyl)nicotinamide], for which the IC50 is 137 nM. Turning to `CNC(=O)c1cnc(Nc2ccc(C#N)cn2)cc1N[C@@H](c1ccccc1)[C@H](O)CO` [Example 1, 6-((5-cyano-2-pyridinyl)amino)-4-(((1S,2S)-2,3-dihydroxy-1-phenylpropyl)amino)-N-methylnicotinamide], the IC50 is 550 nM.

On to `CC(C)(O)[C@H](F)CNC(=O)c1cnc(Nc2ccncn2)cc1NC1CC1` [Example 21, 4-(cyclopropylamino)-N-((2R)-2-fluoro-3-hydroxy-3-methylbutyl)-6-(4-pyrimidinylamino)nicotinamide], for which the IC50 was 331 nM.

Consider `CC(C)Nc1cc(Nc2ccc(C#N)cn2)ncc1C(=O)NC[C@@H](F)C(C)(C)O` [Example 2, 6-((5-cyano-2-pyridinyl)amino)-N-((2R)-2-fluoro-3-hydroxy-3-methylbutyl)-4-(isopropylamino)nicotinamide], for which the IC50 came out at 453 nM. Turning to `CCNc1cc(Nc2ncc(C#N)cc2Cl)ncc1C(=O)NC[C@@H](F)C(C)(C)O` [Example 51], the IC50 is 99 nM. In the case of `CC(C)Nc1cc(Nc2ccc(C#N)c(N3CCC(O)C3)n2)ncc1C(=O)NC[C@@H](F)C(C)(C)O` (stereo in doubt) [Example 27, 6-((5-cyano-6-((3S)-3-hydroxy-1-pyrrolidinyl)-2-pyridinyl)amino)-N-((2R)-2-fluoro-3-hydroxy-3-methylbutyl)-4-(isopropylamino)nicotinamide], the IC50 came to 133 nM. Regarding `CNC(=O)[C@H]1CC[C@H](NC(=O)c2cnc(Nc3ncc(C#N)cc3F)cc2NC2CCOCC2)CC1` [Example 61], the IC50 was 184 nM. The same measure, in the same setting: the value for `CCNc1cc(Nc2ncc(C#N)cn2)ncc1C(=O)NC[C@@H](F)C(C)(C)O` [Example 58] was 191 nM; that for `C[C@@H](CO)Nc1cc(Nc2ncc(C#N)cc2Cl)ncc1C(=O)NC[C@@H](F)C(C)(C)O` [Example 50] was 85 nM.

As to `CC(C)(O)[C@H](F)CNC(=O)c1cnc(Nc2ncc(C#N)cn2)cc1NC1CCC(F)C1` (stereo partly shown) [Example 56], the IC50 is 41 nM. In the case of `CC(C)(O)[C@H](F)CNC(=O)c1cnc(Nc2ccc(C#N)cn2)cc1NCC(F)(F)F` [Example 3, 6-((5-cyano-2-pyridinyl)amino)-N-((2R)-2-fluoro-3-hydroxy-3-methylbutyl)-4-((2,2,2-trifluoroethyl)amino)nicotinamide], the IC50 is 789 nM. Regarding `CNC(=O)[C@H]1CC[C@H](NC(=O)c2cnc(Nc3ccc(C#N)cn3)cc2NC(C)C)CC1` [Example 5, 6-((5-cyano-2-pyridinyl)amino)-4-(isopropylamino)-N-(trans-4-(methylcarbamoyl)cyclohexyl)nicotinamide], the IC50 was found to be 588 nM.
